Laboratory results from the supplement of paper PMC10307832.

Tests used:
Experiment in all cases: relative viability (nuclei count vs DMSO), 5 days (fraction); higher = more cells survive
[1] = compound: C1=CC=C2C(=C1)C=CC(=C2SSC3=C(C=CC4=CC=CC=C43)O)O [IPA-3] + Cc1nc(Nc2ncc(C(=O)Nc3c(C)cccc3Cl)s2)cc(N2CCN(CCO)CC2)n1 [Dasatinib] (partner 0.075 µM)
Procedure, shortened: (§1)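 Relative viability was taken as the ratio of nuclei in treated wells to nuclei in vehicle wells. Lung cancer cell lines in 1536-well plates received compounds by pin tool one day after seeding, either one drug alone or a fixed anchor-drug dose plus five library-drug doses (not always all listed) in √10 steps. Nuclei were counted on 4× images after 5 days of treatment, and values are medians of duplicate plates.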

[2] = compound: Cc1ccc(-n2nc(C(C)(C)C)cc2NC(=O)Nc2ccc(OCCN3CCOCC3)c3ccccc23)cc1 [Doramapimod] + CC(=O)c1c(C)c2cnc(Nc3ccc(N4CCNCC4)cn3)nc2n(C2CCCC2)c1=O [Palbociclib] (partner 0.5 µM)
Procedure, shortened: as §1

[3] = compound: Cc1ccc(-n2nc(C(C)(C)C)cc2NC(=O)Nc2ccc(OCCN3CCOCC3)c3ccccc23)cc1 [Doramapimod] + CC1(C)CCC(c2ccc(Cl)cc2)=C(CN2CCN(c3ccc(C(=O)NS(=O)(=O)c4ccc(N[C@H](CCN5CCOCC5)CSc5ccccc5)c(S(=O)(=O)C(F)(F)F)c4)cc3)CC2)C1 [Navitoclax] (partner 0.5 µM)
Procedure, shortened: as §1

[4] = compound: Cc1ccc(-n2nc(C(C)(C)C)cc2NC(=O)Nc2ccc(OCCN3CCOCC3)c3ccccc23)cc1 [Doramapimod] + Nc1nc2[nH]cc(CCc3ccc(C(=O)N[C@@H](CCC(=O)O)C(=O)O)cc3)c2c(=O)[nH]1 [Pemetrexed] (partner 0.2 µM)
Procedure, shortened: as §1

| Cell Line | relative viability ([1]; first compound 0.2 µM) | relative viability ([1]; first compound 0.6325 µM) | relative viability ([1]; first compound 2 µM) | relative viability ([1]; first compound 6.325 µM) | relative viability ([1]; first compound 20 µM) | relative viability ([2]; first compound 0.02 µM) | relative viability ([2]; first compound 0.06325 µM) | relative viability ([2]; first compound 0.2 µM) | relative viability ([2]; first compound 0.6325 µM) | relative viability ([2]; first compound 2 µM) | relative viability ([3]; first compound 0.02 µM) | relative viability ([3]; first compound 0.06325 µM) | relative viability ([3]; first compound 0.2 µM) | relative viability ([3]; first compound 0.6325 µM) | relative viability ([3]; first compound 2 µM) | relative viability ([4]; first compound 0.02 µM) | relative viability ([4]; first compound 0.06325 µM) | relative viability ([4]; first compound 0.2 µM) | relative viability ([4]; first compound 0.6325 µM) | relative viability ([4]; first compound 2 µM) |
| --- | --- | --- | --- | --- | --- | --- | --- | --- | --- | --- | --- | --- | --- | --- | --- | --- | --- | --- | --- | --- |
| HCC-15 | 0.682 | 0.605 | 0.548 | 0.596 | 0.471 | 0.548 | 0.772 | 0.755 | 0.686 | 0.525 | 0.657 | 0.629 | 0.726 | 0.691 | 0.634 | 0.225 | 0.231 | 0.245 | 0.211 | 0.224 |
| HCC-44 |  |  |  |  |  | 0.96 | 1 | 0.97 | 0.904 | 0.891 | 1 | 0.986 | 0.986 | 1.14 | 0.979 | 0.673 | 0.649 | 0.712 | 0.605 | 0.614 |
| HCC-78 | 0.43 | 0.359 | 0.462 | 0.439 | 0.427 | 0.469 | 0.511 | 0.505 | 0.509 | 0.568 | 0.834 | 0.81 | 0.81 | 0.874 | 0.777 | 0.879 | 0.883 | 0.918 | 0.967 | 0.887 |
| HCC-366 | 0.892 | 0.613 | 0.604 | 0.656 | 0.679 | 0.397 | 0.379 | 0.373 | 0.412 | 0.351 | 1.05 | 1 | 1.03 | 0.978 | 0.901 | 0.147 | 0.197 | 0.212 | 0.186 | 0.178 |
| HCC-827 | 0.419 | 0.358 | 0.405 | 0.302 | 0.292 | 0.456 | 0.479 | 0.493 | 0.475 | 0.329 | 1.01 | 0.959 | 0.984 | 1 | 0.829 | 0.238 | 0.253 | 0.254 | 0.242 | 0.199 |
| IA-LM |  |  |  |  |  |  |  |  |  |  | 0.676 | 0.567 | 0.804 | 0.807 | 0.577 |  |  |  |  |  |
| LCLC-103H | 0.492 | 0.482 | 0.422 | 0.56 | 0.566 | 0.43 | 0.396 | 0.432 | 0.42 | 0.439 |  |  |  |  |  | 0.436 | 0.417 | 0.413 | 0.428 | 0.424 |
| NCI-H358 | 0.219 | 0.145 | 0.186 | 0.213 | 0.158 | 0.153 | 0.137 | 0.138 | 0.195 | 0.133 |  |  |  |  |  | 0.176 | 0.167 | 0.162 | 0.169 | 0.175 |
| NCI-H522 | 0.875 | 0.922 | 0.847 | 0.86 | 0.884 | 1.02 | 1.04 | 1.03 | 0.954 | 0.817 |  |  |  |  |  | 0.909 | 1.05 | 0.797 | 0.715 | 0.796 |
| NCI-H596 | 0.635 | 0.573 | 0.765 | 0.69 | 0.752 |  |  |  |  |  | 0.927 | 0.809 | 0.933 | 1.01 | 0.876 | 0.484 | 0.52 | 0.468 | 0.522 | 0.479 |
| NCI-H650 | 0.461 | 0.498 | 0.439 | 0.438 | 0.44 | 0.368 | 0.341 | 0.395 | 0.343 | 0.345 |  |  |  |  |  | 0.741 | 0.938 | 0.976 | 1.06 | 0.9 |
| NCI-H661 | 1.06 | 0.871 | 0.656 | 0.867 | 0.787 | 0.447 | 0.407 | 0.404 | 0.427 | 0.39 |  |  |  |  |  | 1.05 | 0.861 | 0.923 | 0.96 | 0.901 |
| NCI-H727 | 0.295 | 0.423 | 0.328 | 0.385 | 0.389 | 0.603 | 0.639 | 0.656 | 0.705 | 0.692 | 0.467 | 0.337 | 0.501 | 0.481 | 0.382 |  |  |  |  |  |
| NCI-H1299 |  |  |  |  |  |  |  |  |  |  | 1.1 | 1.13 | 1.12 | 1.05 | 1.09 |  |  |  |  |  |
| NCI-H1563 | 0.418 | 0.506 | 0.447 | 0.537 | 0.442 |  |  |  |  |  |  |  |  |  |  | 0.83 | 0.768 | 0.811 | 1.13 | 0.787 |
| NCI-H1623 | 0.509 | 0.579 | 0.561 | 0.546 | 0.617 |  |  |  |  |  |  |  |  |  |  |  |  |  |  |  |
| NCI-H1648 |  |  |  |  |  | 0.262 | 0.293 | 0.248 | 0.249 | 0.234 |  |  |  |  |  | 0.745 | 0.87 | 0.584 | 0.705 | 0.632 |
| NCI-H1703 |  |  |  |  |  |  |  |  |  |  | 0.957 | 0.944 | 1.16 | 1.54 | 0.896 |  |  |  |  |  |
| NCI-H2342 | 0.308 | 0.346 | 0.343 | 0.375 | 0.305 | 0.523 | 0.585 | 0.632 | 0.524 | 0.535 |  |  |  |  |  | 0.733 | 0.759 | 0.789 | 0.788 | 0.784 |
| SW 900 | 0.74 | 0.703 | 0.667 | 0.781 | 0.543 | 0.57 | 0.537 | 0.558 | 0.584 | 0.531 |  |  |  |  |  | 0.513 | 0.513 | 0.478 | 0.502 | 0.479 |
